This is an account of results in patent publication US11434255B2, “Nucleoside and nucleotide analogues bearing a quaternary all-carbon stereogenic center at the 2′ position and methods of use as a cardioprotective agent” (LCB PHARMA INC., priority 2016, dated 2022).

The test system of series [1] is wild type mice, DOX-induced toxicity. Nature of the series: In vivo echocardiography in DOX-treated mice. The method, then: (§1) Mice were handled in accordance with institutional guidelines for animal care. Experiments were approved by the institutional Animal Care Committees and the investigation conforms with the Guide for the Care and Use of Laboratory Animals published by the US National Institutes of Health (NIH Publication N. 85-23, revised 1985). Doxorubicin treatment was a single ip injection of 5 or 15 mg/kg as previously described by Aries et al.^6 ALZET micro-osmotic pumps (Model 1002, 0.25 μl/hr, 14 days) were filled with DMSO, Ang II (0.5 μgKg/day) LCB2122 (2.0 or 2.8 μg/Kg/day) diluted in normal saline and inserted subcutaneously in mice for two weeks. M-mode echocardiography was performed using Visual-Sonics VEVO 2100 system and 30-MHz linear array transducer, on lightly anesthetized mice using […], 80 ml/min of 100% oxygen, as described by Aries et al. and echocardiographic indices were calculated as described by Yang et al.^17 Heart failure was defined as EF<45%.

Series [2] has as its system HepG2 human cancer cell line. Nature of the series: Cell Titer Glo growth inhibition, DOX +/- LCB2122. Type of series: cell-based. The text has this:
Indeed, the IC50 of DOX in HepG2 human cancer cell line was identical in the absence or presence of LCB2122. FIG. 8 is a plot representing the percent growth inhibition as measured by Cell Titer Glo assays done on HepG2 cells treated with varying concentrations of DOX+/−LCB-2122 ([…]).
On the technique in general: In ATP-based viability assays light output follows the ATP content of the culture.

For the next series, the system named is heart cardiomyocytes. Nature of the series: TUNEL assay on heart sections of DOX-treated mice. Type of series: in vivo. Conditions: after 2 weeks, FIG. 11. The protocol:
as §1
After these 2 weeks, heart cardiomyocytes were also tested by TUNEL assay (on heart sections).

In series [3] the test system is primary cardiomyocytes. As to the kind of experiment: TUNEL assay, Imatinib-induced apoptosis in primary cardiomyocytes. The format is cell-based. Conditions: Cardiomyocyte, 6 hours, FIG. 6, read-out: EC50, prevention of apoptosis induced by Imatinib. The protocol: (§2) Primary cardiomyocyte monologues covered by serum free media (SF) were treated with DMSO (vehicle), Doxorubicin (DOX) (300 nM), Imatinib (Imat) (5 μM), and/or LCB2122 at varying concentrations (0.1, 0.5, 1.5 at 10 μM) diluted in SF for 3, 6, 18 or 24 hours. The TUNEL assay (Terminal Deoxynucleotidyltransferase mediated dUTP End Labeling) was utilized to detect apoptotic nuclei using an Apop Tag Red in Situ Apoptosis Detection Kit (Millipore, Temecula, Calif.). A Zeis fluorescent microscope was used for image acquisition. Cell counting was done using the Imager® Software.

Series [4] concerns atrial natriuretic factor (ANF). As to the kind of experiment: ANF ELISA on blood plasma of WT and AT1R mice. Type of series: in vivo. Conditions: 2.0 μg/Kg/day, 4 weeks, FIG. 13b. The method, then:
FIG. 13b) quantification of an ANF ELISA assay done on blood plasma samples from vehicle and LCB2122 (2.0 μg/Kg/day, 4 weeks) treated WT and AT1R mice ventricles. Once again, the increase in ANF plasma levels was attenuated in the LCB2122 treated AT1R mice.
On the technique in general: ELISA stands for enzyme-linked immunosorbent assay.

Series [5] has the same test system. Nature of the series: ANF transcript QPCR on ventricles of WT and AT1R mice. Type of series: in vivo. As to conditions: 2.0 μg/Kg/day, 4 weeks, FIG. 13a. The text has this: The massive ANF upregulation seen in AT1R mice usually indicative of cardiac stress is attenuated in LCB2122 treated AT1R mice.
Series [6] relates to primary cardiomyocytes. Nature of the series: TUNEL assay, DOX-induced apoptosis in primary cardiomyocyte monolayers. Type of series: cell-based. The method, then: as §2
The test system of a further series is AT1R mice. As to the kind of experiment: Echocardiography in AT1R transgenic (heart failure model) and wild-type mice. Type of series: in vivo. The method, then: as §1
Transgenic mice overexpressing the human angiotensin II type 1 receptor^7 (AT1R) under the control of the mouse α-myosin heavy chain were generated. These mice are a model of human HF. Cardiomyocyte specific overexpression induced in basal conditions overtime, morphologic changes that mimic those observed during the development of cardiac hypertrophy in humans. In order words, these mice develop age-dependent HF.
All AT1R mice had EF % less than 40%, similar to HF patients in human. […] LCB2122 treated AT1R mice (2.0 μg/kg/day for 4 weeks) had their cardiac functions improved as opposed to untreated mice. […] The data shown are the individual values of each mouse at weeks 0 and 4. All WT mice had normal EF % independent of LCB2122 treatment throughout the study. All AT1R mice were in HF prior to any treatment.

Series [7] concerns primary cardiomyocytes. As to the kind of experiment: TUNEL assay, primary cardiomyocytes treated with 3 μM Doxorubicin for 6 hours (Table 1). The format is cell-based. As to conditions: Cardiomyocyte. The protocol:
as §2
The cardioprotective profile of LCB2122, LC2165, LCB2191 and LCB2177 were also investigated. As above, primary cardiomyocytes were treated with 3 μM of Doxorubicin for 6 hours alone or with the above compounds of the invention. The TUNEL assay was utilized to detect apoptotic nuclei. […] LCB2165, LCB2191 and LCB2177 were also active with IC50's of 5 μM.

For another series, the system named is cardiomyocytes. As to the kind of experiment: Sarcomeric alpha-actinin immunofluorescence on cardiomyocytes. Type of series: cell-based. Conditions: 5 uM, six hours, FIG. 7. The protocol: Immunofluorescence were performed on cardiomyocytes as previously described,^16 using a sarcomeric alpha-Actinin antibody (1/500).
FIG. 7 is a micrograph showing α-actinin immunostaining (straight lines) of 2% PFA-fixed cardiomyocytes treated with a) vehicle (DMSO) or b) LCB2122 (5 uM) for six hours. […] White spots mark the nuclei.

Like-named read-outs stand apart in the source and are kept apart here.

`COc1cccc2c1C(=O)c1c(O)c3c(c(O)c1C2=O)C[C@@](O)(C(=O)CO)C[C@@H]3O[C@H]1C[C@H](N)[C@H](O)[C@H](C)O1` [DOX, Doxorubicin, reference compound]: the “ejection fraction (EF, %) after DOX alone” value in [1] (mice, two weeks after DOX ip injection, FIG. 9) is on record as “decreased significantly”. Also, the “ventricular wall thickness after DOX alone” value in series [1] (wild type mice, DOX (5 μg/kg) as printed) was “induced also a loss of ventricular wall thickness”.
Consider `CCOP(=O)(OCC)OC[C@H]1O[C@@H](n2cnc3c(N)nc(Cl)nc32)[C@](C)(CO)[C@@H]1O` [LCB2122, ((2R,3S,4R,5R)-5-(6-amino-2-chloro-9H-purin-9-yl)-3-hydroxy-4-(hydroxymethyl)-4-methyltetrahydrofuran-2-yl)methyl diethyl phosphate], for which the “effect on antiproliferative effect of DOX” value in series [2] (HepG2, DOX +/- LCB2122, FIG. 8) is reported as “did not affect the antiproliferative effect of DOX”. Also, the “effect on HepG2 sensitivity to DOX” value in series [2] (up to 4 μM LCB2122) is “no effect on HepG2 sensitivity to DOX”. For the same compound, the “apoptotic cardiomyocytes (TUNEL, heart sections)” value with heart cardiomyocytes is “significant decrease of apoptotic cardiomyocytes”. For the same compound, the concentration giving a half-maximal response (EC50) (usually the concentration that produces a half-maximal response) in the series with primary cardiomyocytes [3] was found to be 5 µM; with primary cardiomyocytes [6] (Cardiomyocyte, DOX 300 nM, TUNEL, FIG. 4, read-out: EC50, prevention of DOX-induced apoptotic cell death), 500 nM. Further, in series [4], the “increase in ANF plasma levels” value is given as “attenuated”. In addition, in series [5], the “ANF transcript upregulation in ventricles” value was “attenuated”. For the same compound, the “prevention of DOX-induced apoptotic cell death” value in the series on primary cardiomyocytes [6] (DOX 300 nM, 6 hours, FIGS. 3 and 4) is given as “completely prevented DOX-induced apoptotic cell death”. Also, the “DOX-induced apoptosis over time” value with primary cardiomyocytes [6] (DOX 300 nM, at 3, 6 or 24 hours) was “blocked”. Also, in the series on primary cardiomyocytes [6] (time course, any time points, FIG. 5), the “induction of apoptosis by the compound alone” value is “did not induce apoptosis”. Also, the “cardiac function (ejection fraction) in AT1R mice” value in the series with AT1R mice (2.0 μg/kg per day for 4 weeks, FIG. 12) is given as “significant improvement of the cardiac function”. For the same compound, in the series with AT1R mice (2.0 μg/kg/day for 4 weeks), the “cardiac function of normal (WT) mice” value was “did not alter cardiac function of normal mice”. In addition, the “share of treated AT1R mice with EF % equal and above 40%” value with AT1R mice (after four weeks of LCB2122) is 55%. Besides, in series [1] (DOX ip, LCB2122 micropump for two weeks, FIG. 9), the “ejection fraction (EF, %) after DOX” value is recorded as “protected against DOX-induced toxicity”. Further, the “left ventricle wall thickness after DOX” value in [1] (wild type mice, DOX, FIG. 10) is “protected against this DOX-induced wall thickness”. Further, the concentration for half-maximal inhibition (IC50) (commonly the concentration that inhibits the measured activity by half) in the series with primary cardiomyocytes [7] (6 h) is 1 µM. In the series with cardiomyocytes, the “cytoskeletal organization and cell size (α-actinin immunostaining)” value is “does not alter cytoskeletal organization or cell size”.
For `CCOP(=O)(OCC)OC[C@H]1O[C@@H](n2cnc3c(N)nc(Cl)nc32)[C@](C)(COCc2ccccc2)[C@@H]1O` [LCB2165, ((2R,3S,4R,5R)-5-(6-amino-2-chloro-9H-purin-9-yl)-4-((benzyloxy)methyl)-3-hydroxy-4-methyltetrahydrofuran-2-yl)methyl diethyl phosphate], the IC50 in the series on primary cardiomyocytes [7] (6 h) worked out at 5 µM.
For the compound `CC(C)OP(=O)(OC[C@H]1O[C@@H](n2cnc3c(N)nc(Cl)nc32)[C@](C)(CO)[C@@H]1O)OC(C)C` [LCB2177, ((2R,3S,4R,5R)-5-(6-amino-2-chloro-9H-purin-9-yl)-3-hydroxy-4-(hydroxymethyl)-4-methyltetrahydrofuran-2-yl)methyl diisopropyl phosphate], in the series on primary cardiomyocytes [7] (3 μM Doxorubicin, 6 hours, TUNEL apoptotic nuclei, read-out: IC50), the 50% inhibitory concentration (IC50) turned out to be 5 µM.
Turning to `C#CCOc1ccc(C(=O)c2ccc(C(=O)OC[C@]3(C)[C@H](O)[C@@H](COP(=O)(OCC)OCC)O[C@H]3n3cnc4c(N)nc(Cl)nc43)cc2)cc1` [LCB2191, ((2R,3R,4S,5R)-2-(6-amino-2-chloro-9H-purin-9-yl)-5-(((diethoxyphosphoryl)oxy)methyl)-4-hydroxy-3-methyltetrahydrofuran-3-yl)methyl 4-(4-(prop-2-yn-1-yloxy)benzoyl)benzoate], the IC50 with primary cardiomyocytes [7] (6 h) was found to be 5 µM.
